Data set [1] concerns the target human 5-HT6 receptor (Homo sapiens (Human), UniProt P50406). The experiment in a line: radioligand binding assay (SPA format), [N-methyl-3H]-LSD. The conditions noted are these: read-out: human 5HT6 Ki, human 5-HT6 receptor membranes, 10 nM [3H]-LSD.

Like-named read-outs stand apart in the source and are kept apart here.

Sequence of human 5-HT6 receptor (P50406 whole entry): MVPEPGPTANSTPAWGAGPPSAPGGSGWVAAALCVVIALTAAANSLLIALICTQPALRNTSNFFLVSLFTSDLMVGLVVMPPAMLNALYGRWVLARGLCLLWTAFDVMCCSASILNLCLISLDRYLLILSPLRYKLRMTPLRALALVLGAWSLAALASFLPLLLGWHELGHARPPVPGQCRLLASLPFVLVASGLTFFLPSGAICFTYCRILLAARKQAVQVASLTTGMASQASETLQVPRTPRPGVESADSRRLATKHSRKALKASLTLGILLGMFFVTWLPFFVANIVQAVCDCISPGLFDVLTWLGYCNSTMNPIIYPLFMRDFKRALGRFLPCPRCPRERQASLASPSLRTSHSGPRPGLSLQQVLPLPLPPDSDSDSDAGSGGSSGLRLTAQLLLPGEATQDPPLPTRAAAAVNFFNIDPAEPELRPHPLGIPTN

As for `CCOc1cc(S(=O)(=O)c2ccccc2)cc2c3c(n(C)c12)CC1CCC3N1.Cl` (centres unmarked) [Example 84, 2-Phenylsulfonyl-4-ethoxy-5-methyl-5,6,7,8,9,10-hexahydro-7,10-epiminocyclohepta[b]indole hydrochloride], the melting point is 182 to 184 °C. For the same compound, the Ki in data set [1] (hydrochloride) came to 1 nM.

In turn, `Cc1cc(S(=O)(=O)c2cccc(OC(F)(F)F)c2)cc2c3c(n(C)c12)CC1CCC3N1.Cl` (centres unmarked) [Example 76, 2-(3-Trifluoromethoxy-phenyl)sulfonyl-4,5-dimethyl-5,6,7,8,9,10-hexahydro-7,10-epiminocyclohepta[b]indole hydrochloride] yielded a melting point of 220 to 222 °C. Besides, the Ki in data set [1] amounted to 6.9 nM.

In turn, `COc1ccc(S(=O)(=O)c2ccc3c(c2)c2c(n3C)CC3CCC2N3)cc1.Cl` (centres unmarked) [Example 31, 2-(4-Methoxyphenyl)sulfonyl-5-methyl-5,6,7,8,9,10-hexahydro-7,10-epiminocyclohepta[b]indole hydrochloride] gave a melting point of 210 to 212 °C. Further, the Ki in data set [1] is 44 nM.

Turning to `Cl.Cn1c2c(c3cc(S(=O)(=O)c4cncc(Cl)c4)ccc31)C1CCC(C2)N1` (centres unmarked) [Example 58, 2-[3-(5-Chloro)-pyridine]sulfonyl-5-methyl-5,6,7,8,9,10-hexahydro-7,10-epiminocyclohepta[b]indole hydrochloride], the melting point is 202 to 205 °C (dec.). For the same compound, in data set [1], the inhibition constant Ki was 44 nM.

For the compound `Cl.Cn1c2c(c3cc(S(=O)(=O)c4ccc(Cl)cc4)ccc31)C1CCC(C2)N1` (centres unmarked) [Example 51, 2-(4-Chlorophenyl)sulfonyl-5-methyl-5,6,7,8,9,10-hexahydro-7,10-epiminocyclohepta[b]indole hydrochloride], the melting point was 310 to 320 °C. For the same compound, the Ki in data set [1] amounted to 37 nM.

As for `Cc1cc(S(=O)(=O)c2ccccc2)cc2c3c(n(C)c12)CC1CCC3N1.Cl` (centres unmarked) [Example 71, 2-Phenylsulfonyl-4,5-dimethyl-5,6,7,8,9,10-hexahydro-7,10-epiminocyclohepta[b]indole hydrochloride], the melting point lay within 244 to 248 °C. Moreover, the inhibition constant Ki in data set [1] came to 3.3 nM.

The compound `Cl.Cn1c2c(c3cc(S(=O)(=O)c4ccccn4)ccc31)C1CCC(C2)N1` (centres unmarked) [Example 60, 2-(2-Pyridine)sulfonyl-5-methyl-5,6,7,8,9,10-hexahydro-7,10-epiminocyclohepta[b]indole hydrochloride] gave a melting point of 222 to 225 °C. Moreover, the Ki in data set [1] stood at 193 nM.

The compound `Cc1cccc(S(=O)(=O)c2ccc3c(c2)c2c(n3C)CC3CCC2N3)c1.Cl` (centres unmarked) [Example 37, 2-(3-Methylphenyl)sulfonyl-5-methyl-5,6,7,8,9,10-hexahydro-7,10-epiminocyclohepta[b]indole hydrochloride] came in with a melting point of 194 to 196 °C. Besides, in data set [1], the Ki worked out at 3.7 nM.

`Cc1cn(S(=O)(=O)c2ccc3c(c2)c2c(n3C)CC3CCC2N3)c2ccccc12.Cl` (centres unmarked) [Example 68, 2-[1-(3-Methyl)-indole]sulfonyl-5-methyl-5,6,7,8,9,10-hexahydro-7,10-epiminocyclohepta[b]indole hydrochloride] yielded a melting point of 212 to 215 °C. Moreover, the Ki in data set [1] (hydrochloride) is 1.2 nM.

`CC(C)n1c2c(c3cc(S(=O)(=O)c4ccccc4)ccc31)C1CCC(C2)N1.Cl` (centres unmarked) [Example 87, 2-Phenylsulfonyl-5-isopropyl-5,6,7,8,9,10-hexahydro-7,10-epiminocyclohepta[b]indole hydrochloride] had a melting point of 260 to 265 °C. Besides, the Ki in data set [1] (hydrochloride) turned out to be 350 nM.

For the compound `Cl.Cn1c2c(c3cc(S(=O)(=O)c4cccc(OC(F)F)c4)ccc31)C1CCC(C2)N1` (centres unmarked) [Example 40, 2-(3-Difluoromethoxyphenyl)sulfonyl-5-methyl-5,6,7,8,9,10-hexahydro-7,10-epiminocyclohepta[b]indole hydrochloride], the melting point is 186 to 190 °C (dec.). Besides, the inhibitory constant (Ki) in data set [1] is 5.8 nM.

In turn, `Cc1cc(S(=O)(=O)c2cncnc2)cc2c3c(n(C)c12)CC1CCC3N1.Cl` (centres unmarked) [Example 78, 2-(5-Pyrimidine)sulfonyl-4,5-dimethyl-5,6,7,8,9,10-hexahydro-7,10-epiminocyclohepta[b]indole] gave a melting point of 226 to 228 °C. Besides, the Ki in data set [1] was 794 nM.

Regarding `Cl.Cn1c2c(c3cc(S(=O)(=O)c4cc(F)cc(F)c4)ccc31)C1CCC(C2)N1` (centres unmarked) [Example 55, 2-(3,5-Difluorophenyl)sulfonyl-5-methyl-5,6,7,8,9,10-hexahydro-7,10-epiminocyclohepta[b]indole hydrochloride], the melting point was 230 to 235 °C (dec.). Moreover, in data set [1], the Ki came to 8.5 nM.

Compound `Cl.Cn1c2c(c3cc(S(=O)(=O)c4ccccc4)cc(OCc4ccccc4)c31)C1CCC(C2)N1` (centres unmarked) [Example 86, 2-Phenylsulfonyl-4-benzyloxy-5-methyl-5,6,7,8,9,10-hexahydro-7,10-epiminocyclohepta[b]indole hydrochloride] showed a melting point of 178 to 180 °C. Moreover, the Ki in data set [1] turned out to be 14 nM.

As to `CCn1c2c(c3cc(S(=O)(=O)c4ccccc4)ccc31)C1CCC(C2)N1.Cl` (centres unmarked) [Example 90, 2-Phenylsulfonyl-5-ethyl-5,6,7,8,9,10-hexahydro-7,10-epiminocyclohepta[b]indole hydrochloride], the melting point is 200 to 204 °C (dec.). Also, the Ki in data set [1] was found to be 52 nM.

Regarding `Cl.Cn1c2c(c3cc(S(=O)(=O)c4cc(Cl)cc(Cl)c4)ccc31)C1CCC(C2)N1` (centres unmarked) [Example 54, 2-(3,5-Dichlorophenyl)sulfonyl-5-methyl-5,6,7,8,9,10-hexahydro-7,10-epiminocyclohepta[b]indole hydrochloride], the melting point lay in the range of 190 to 195 °C. Further, in data set [1], the Ki came out at 10 nM.

`CNc1cccc(S(=O)(=O)c2ccc3c(c2)c2c(n3C)CC3CCC2N3)c1.Cl` (centres unmarked) [Example 46, 2-[(3-N-Methylamino)phenyl]sulfonyl-5-methyl-5,6,7,8,9,10-hexahydro-7,10-epiminocyclohepta[b]indole hydrochloride]: the melting point was 208 to 212 °C (dec.). Moreover, the Ki in data set [1] was determined as 6.5 nM.

Compound `Cl.Cn1c2c(c3ccc(S(=O)(=O)c4ccccc4)cc31)C1CCC(C2)N1` (centres unmarked) [Example 91, 3-Phenylsulfonyl-5-methyl-5,6,7,8,9,10-hexahydro-7,10-epiminocyclohepta[b]indole hydrochloride] yielded a melting point of 252 to 256 °C. Also, the Ki in data set [1] stood at 115 nM.

Compound `Cl.O=S(=O)(c1ccccc1)c1ccc2c(c1)c1c(n2-c2ccccc2)CC2CCC1N2` (centres unmarked) [Example 88, 2-Phenylsulfonyl-5-phenyl-5,6,7,8,9,10-hexahydro-7,10-epiminocyclohepta[b]indole hydrochloride] returned a melting point of 195 to 200 °C. Moreover, the inhibition constant (Ki) in data set [1] was found to be 350 nM.

The compound `COc1cccc(S(=O)(=O)c2ccc3c(c2)c2c(n3C)CC3CCC2N3)c1.Cl` (centres unmarked) [Example 41, 2-(3-Methoxyphenyl)sulfonyl-5-methyl-5,6,7,8,9,10-hexahydro-7,10-epiminocyclohepta[b]indole hydrochloride] had a melting point of 186 to 190 °C. In addition, the Ki in data set [1] was 17 nM.

In the case of `Cl.Cn1c2c(c3cc(S(=O)(=O)c4cccc(O)c4)ccc31)C1CCC(C2)N1` (centres unmarked) [Example 42, 2-(3-Hydroxyphenyl)sulfonyl-5-methyl-5,6,7,8,9,10-hexahydro-7,10-epiminocyclohepta[b]indole hydrochloride], the melting point fell in the range of 208 to 212 °C. Further, the Ki in data set [1] came to 11 nM.

As to `Cl.Cn1c2c(c3cc(S(=O)(=O)c4ccccc4)cc(F)c31)C1CCC(C2)N1` (centres unmarked) [Example 81, 2-(Phenylsulfonyl)-4-fluoro-5-methyl-5,6,7,8,9,10-hexahydro-7,10-epiminocyclohepta[b]indole hydrochloride], the melting point was 251 to 256 °C (dec.). In addition, the Ki in data set [1] came to 13 nM.

`Cc1ccccc1S(=O)(=O)c1ccc2c(c1)c1c(n2C)CC2CCC1N2.Cl` (centres unmarked) [Example 52, 2-(2-Methylphenyl)sulfonyl-5-methyl-5,6,7,8,9,10-hexahydro-7,10-epiminocyclohepta[b]indole hydrochloride] yielded a melting point of 186 to 188 °C. Moreover, the Ki in data set [1] was 11 nM.

For the compound `Cl.Cn1c2c(c3cc(S(=O)(=O)n4cc(Cl)c5ccccc54)ccc31)C1CCC(C2)N1` (centres unmarked) [Example 67, 2-[1-(3-Chloro)-indole]sulfonyl-5-methyl-5,6,7,8,9,10-hexahydro-7,10-epiminocyclohepta[b]indole hydrochloride], the melting point fell in the range of 204 to 206 °C. Moreover, the Ki in data set [1] was 4.1 nM.

`Cl.Cn1c2c(c3cc(S(=O)(=O)c4cccc(OC(F)(F)F)c4)ccc31)C1CCC(C2)N1` (centres unmarked) [Example 39, 2-(3-Trifluoromethoxyphenyl)sulfonyl-5-methyl-5,6,7,8,9,10-hexahydro-7,10-epiminocyclohepta[b]indole hydrochloride]: the melting point lay within 193 to 196 °C.

With `Cl.Cn1c2c(c3cc(S(=O)(=O)n4ccc5cc(F)ccc54)ccc31)C1CCC(C2)N1` (centres unmarked) [Example 63, 2-[1-(5-Fluoro)-indole]sulfonyl-5-methyl-5,6,7,8,9,10-hexahydro-7,10-epiminocyclohepta[b]indole hydrochloride], the melting point lay in the range of 218 to 220 °C.

`Cc1cc(S(=O)(=O)c2cccc(Cl)c2)cc2c3c(n(C)c12)CC1CCC3N1.Cl` (centres unmarked) [Example 73, 2-(3-Chloro-phenyl)sulfonyl-4,5-dimethyl-5,6,7,8,9,10-hexahydro-7,10-epiminocyclohepta[b]indole hydrochloride] gave a melting point of 227 to 229 °C.

On to `Cc1cc(S(=O)(=O)c2cccc(F)c2)cc2c3c(n(C)c12)CC1CCC3N1.Cl` (centres unmarked) [Example 72, 2-(3-Fluorophenyl)sulfonyl-4,5-dimethyl-5,6,7,8,9,10-hexahydro-7,10-epiminocyclohepta[b]indole hydrochloride], for which the melting point lay in the range of 254 to 256 °C.

For the compound `CN(C)c1cccc(S(=O)(=O)c2ccc3c(c2)c2c(n3C)CC3CCC2N3)c1.Cl` (centres unmarked) [Example 45, 2-[(3-N,N-Dimethylamino)phenyl]sulfonyl-5-methyl-5,6,7,8,9,10-hexahydro-7,10-epiminocyclohepta[b]indole hydrochloride], the melting point is 204 to 208 °C (dec.).

The values are drawn from US8575186B2, “Epiminocycloalkyl[b] indole derivatives as serotonin sub-type 6 (5-HT6) modulators and uses thereof” (Albany Molecular Research, Inc., priority 2009, dated 2013).
